This is an account of results in US8507440B2, “Protein kinase C peptides for use in withdrawal” (The Board of Trustees of the Leland Stanford Junior …, priority 2002, dated 2013).

Ends that are not written are not given here.

One test deals with T1, γPKC (Rattus norvegicus, UniProt P63319).
T1 construct: from tissue; host or cells: lumbar spinal cord slices of postnatal day 7-10 Sprague-Dawley rats
The test is classed as cell-based. The method, then:
Fluorescence immunocytochemical studies were performed on the spinal cord sections, as described in Example 3. The sections were incubated with an anti-γPKC antibody and an anti-neuronal antibody to identify neurons. […] Translocation of γPKC was quantified by counting the number of cells with γPKC localized to the nucleus before (control) and after application of ethanol, as well as after washing with artificial cerebrospinal fluid. […] Two to three sections per animal were counted.
Fluorescence immunocytochemical studies were performed on spinal cord sections […] from control slices (perfused with ACSF for 70 minutes) and EtOH treated slices (perfused with ACSF for 30 minutes followed by 20 min 100 mM EtOH and 20 min wash with ACSF). The sections were incubated with a rabbit anti-PKCg polyclonal antibody (1:500) overnight at 4° C. In some cord sections, a mouse anti-neuronal nuclei monoclonal antibody (NeuN, 1:750) was added to identify neurons. After several washes with ACSF, the sections were labeled for 2 hours at room temperature with fluorescein-labeled secondary antibodies (1:500). Double immunofluorescence was assessed with a laser confocal microscope.

In test [1] the test system is 7 day old and 21 day old rats. Nature of the test: ethanol withdrawal thermal hyperalgesia testing (paw withdrawal latency). The test is classed as in vivo, rat. Particulars: 7 day old rats; intrathecally 4 hours after 4 g/kg 15% EtOH.
The subject of test [2] is 7 day old and 21 day old rats. Nature of the test: ethanol withdrawal mechanical allodynia testing (von Frey threshold withdrawal force). The test is classed as in vivo, rat.
The next test has as its system postnatal day 7 rats. The test is described as follows: natural morphine withdrawal, mechanical allodynia and thermal hyperalgesia in vivo. Particulars: 10 μM intrathecally 2.5 hours after morphine 1 mg/kg; p<0.05 versus Tat carrier or saline. On the set-up: species or system rat. How it is done:
Another study was performed to investigate the roles of PKC isozymes in natural withdrawal, which more closely resembles the clinical setting in addictive sequela. In this study, postnatal day 7 rats were given a single injection of morphine (1 mg/kg) and allowed to undergo natural withdrawal, i.e., naloxone was not administered to precipitate withdrawal. The treatment protocol is shown in FIG. 6A, where 2.5 hours after morphine delivery, εV1-2 or γV5-3 peptide inhibitors were administered intrathecally. Mechanical allodynia and thermal hyperalgesia were evaluated at hourly intervals according to the procedure described in Example 2.
To measure mechanical thresholds, rats were placed on an elevated wire mesh (2 mm openings). Von Frey hairs (Stoelting Co., WoodDale, Ill., USA) were used to elicit a cutaneous flexion withdrawal response as described by Fitzgerald et al. (Fitzgerald M., et al., PAIN […] INFANTS, CHILDREN AND ADOLESCENTS; Schetchter and Yaster, Eds., pp 11-32, Williams and Williams (Baltimore, Md.) (1993). Von Frey hairs of increasing intensity were applied three times to the plantar surface of the left hind paw until a paw withdrawal was elicited. The lowest intensity Von Frey hair required to produce a withdrawal reflex was recorded as the response threshold to a low-intensity mechanical stimulus. […]

Test [3] has as its system N-methyl-D-aspartate (NMDA) receptor currents. Nature of the test: alcohol withdrawal hyperresponsiveness of NMDA-evoked currents in lumbar spinal cord slice motor neurons. It counts as cell-based, rat. From the text:
Spinal cords were taken from young rats, and slices of these cords were made and placed in artificial cerebrospinal fluid for patch clamp electrophysiological analysis, to characterize the ability of γPKC peptides to mediate alcohol withdrawal hyperresponsiveness of N-methyl-D-aspartate (NMDA) receptor currents. FIG. 7A is a schematic diagram of the technique, where a lumbar spinal cord slice 10 is shown. The placement of a recording electrode 12 and a pipette 14 for application of NMDA relative to a motor neuron 16 is illustrated.
Sprague-Dawley rats at postnatal day 7-10 were anesthetized with halothane, decapitated, and the spinal cords were quickly removed. Slices […] thick were sectioned from the lumbar region. Whole cell voltage clamp recordings were made from visually-identified motor neurons using infrared video microscopy, a 60× water immersion lens, and a MultiClamp 700A patch clamp amplifier. Cells were held at a holding potential of −60 mV in artificial cerebrospinal fluid (ACSF) containing bicuculline methiodide ([…]), strychnine ([…]), and tetrodotoxin ([…]). Postsynaptic currents were evoked by direct pressure application of 2 mM N-methyl-D-aspartate (NMDA) from a pipette positioned near the recorded cell at 1-2 min intervals, as illustrated in FIG. 7A. The area of evoked currents during and following 100 mM ethanol (EtOH) application was measured and normalized to the average baseline current area during the 10 minutes preceding EtOH application. Data are expressed as mean +/−SEM: Statistical significance was determined by one-way ANOVA followed by Dunn's or Tukey's multiple comparison test with significance set at p<0.05.

Consider “RLVLAS (also: Tat peptide conjugate; listed as Homo sapiens) [γV5-3]”, for which, in the test with γPKC (peptide applied 20 minutes prior to ethanol), the “number of cells having γPKC localized in the nucleus” value is given as “about 14”. Further, the “block of γPKC translocation to the cytoplasm” value with γPKC (peptide applied prior to ethanol exposure) is given as “effective to block γPKC translocation to the cytoplasm”. Besides, in test [1], the “thermal hyperalgesia, paw withdrawal latency” value was “completely prevented thermal hyperalgesia”. Besides, in test [2] (7 day old rats, 5 μL of 20 μM intrathecally 5 hours after 4 g/kg 15% EtOH i.p., 6 and 7 hour post-EtOH, versus Tat carrier), the “mechanical allodynia, threshold withdrawal force” value was “attenuated mechanical allodynia”. Moreover, the “mechanical allodynia, threshold withdrawal response” value in test [2] (21 day old rats, 10 μL of 20 μM intrathecally 4 hours after 4 g/kg 15% EtOH i.p.) is “prevented a decrease in threshold withdrawal response”. The “mechanical allodynia and thermal hyperalgesia during natural withdrawal from morphine” value in the test with postnatal day 7 rats is “attenuated mechanical allodynia and thermal hyperalgesia”. Moreover, the “block of ethanol withdrawal hyperresponsiveness of NMDA-evoked currents” value in test [3] (2 nM peptide, ethanol 100 mM 15 minutes then wash) is “did not completely block withdrawal hyperresponsiveness”; in test [3] (5-10 nM peptide, ethanol 100 mM then wash), “effectively blocked ethanol withdrawal hyperresponsiveness”.
